One test concerns CpomOR1. The test is described as follows: Single sensillum recordings, CpomOR1 expressed in Drosophila at1 OSNs. It is filed as cell-based, Cydia pomonella. The conditions noted are these: 10 μg per stimulus. From the text:
(§1) To perform heterologous expression in D. melanogaster OSNs, CpomORs were amplified using primers in Table 2 and purified PCR products were cloned into the PCR8/GW/TOPO plasmid (Invitrogen) following the recommended protocol. Cassettes with inserts were then transferred from their PCR8/GW/TOPO plasmids to the destination vector (pUASg-HA.attB, constructed by E. Furger and J. Bischof, kindly provided by the Basler group, Zürich), using the Gateway LR Clonase II kit (Invitrogen). The integrity and orientation of inserts was confirmed by sequencing (Sanger sequencer, 3730xl). Transformant UAS-CpomOR3 and UAS-CpomOR1 lines were generated by Best Gene (Chino Hills, CA, USA), using the PhiC31 integrase system, while the transformant UAS-CpomOR6a line was generated in our labs. Briefly, recombinant pUASg-HA.attB-CpomOR plasmids were injected into embryos of a D. melanogaster line containing an attP insertion site within the third chromosome (genotype y1 M{vas-int.Dm}ZH-2A w*; M{3xP3-RFP.attP}ZH-86Fb), leading to non-random integration. To drive expression of CpomORs in at1 OSNs in place of the endogenous receptor Or67d, transformant UAS-CpomOR lines were crossed to the knock-in Or67d^GAL4 line (kindly provided by Barry Dickson) to generate double homozygous lines w^+;UAS-CpomOR; Or67d^GAL4. Additionally, to drive expression of CpomOR3 in ab3A OSNs, the UAS-CpomOR3 line was crossed to the Δhalo;Or22a-Gal4 mutant line[20][57]. To verify insertion of UAS-CpomORs constructs into the genome, gDNA was extracted and used as template in PCR with primers for the full ORF of CpomORs (Table 2).
(§2) CpomOR1 and CpomOR6a expressed in at1 OSNs, and CpomOR3 expressed in ab3A OSNs, were tested through single sensillum recordings (SSR). Three to 8-day-old flies were immobilized in 100 μL pipette tips with only the top half of the head protruding. The left antenna of each insect was gently pushed with a glass capillary against a double-sided adhesive tape placed on a piece of glass. This piece of glass and the pipette tip were fixed with dental wax on a microscope slide. Electrolytically sharpened tungsten electrodes (Harvard Apparatus Ltd, Edenbridge, United Kingdom) were used to penetrate the insect´s body. The reference electrode was manually inserted in the right eye of the fly, while the recording electrode was manoeuvred with a DC-3K micromanipulator equipped with a PM-10 piezo translator (Märzhäuser Wetzler GmbH, Wetzler, Germany) and inserted at the base of the determined sensilla. Signals coming from the olfactory sensory neurons were amplified 10 times with a probe (INR-02, Syntech, Hilversum, the Netherlands), digitally converted through an IDAC-4-USB (Syntech) interface, and visualized and analysed with the software Autospike v. 3.4 (Syntech). A constant flow of 0.65 m/s of humidified air (charcoal-filtered) was delivered through a glass tube to the antenna. The panel of odorants was given to the insect by inserting pipettes containing a piece of filter paper with the correspondent stimulus in a lateral hole of the glass tube and puffing a flow of 2.5 mL of air during 0.5 s through the pipette. For CpomOR1 and CpomOR6a the panel of odorants was prepared by applying 10 μL of a solution of 1.0 μg/μL of the compounds in Supplementary Dataset S2 and Supplementary Dataset S3, for a total amount of 10 μg per stimulus. In the case of CpomOR3, a similar dilution process was used for the dose response experiments of ethyl-(E,Z)-2,4-decadienoate and methyl-(E,Z)-2,4-decadienoate, as well for dose response of experiments of codlemone acetate in CpomOR6a. Compounds were diluted from concentrations ranging from 0.01 ng/μL to 10 μg/μL in decadic steps, allowing reaching concentrations from 100 pg to 100 μg per stimulus when 10 μL of the dilution was applied in the piece of filter paper. […]

In another test the test system is CpomOR6a. As to the kind of experiment: Single sensillum recordings, CpomOR6a expressed in Drosophila at1 OSNs. It is filed as cell-based, Cydia pomonella. The conditions noted are these: for Spike/s: 10 μg per stimulus; for response compared with the solvent: 10 μg doses, Mann-Whitney U Test, p < 0.05.
Text: as §1, §2

For `CCCCCCCCCCCCO` [1-dodecanol], the Spikes/s was -2 Spikes/s with CpomOR1 (replicate 1); 4 Spikes/s with CpomOR1 (replicate 2); 2 Spikes/s in the test on CpomOR1 (replicate 3); -2 Spikes/s in the test with CpomOR1 (replicate 4); 2 Spikes/s in the test with CpomOR1 (replicate 5).

As to `C=C/C=C(\C)CCC=C(C)C` [4,8-Dimethyl-1,(E)-3,7-nonatriene], the Spikes/s is recorded as 2 Spikes/s in the test with CpomOR1 (replicate 1); -6 Spikes/s in the test on CpomOR1 (replicate 2); 2 Spikes/s in the test on CpomOR1 (replicate 3); 4 Spikes/s in the test with CpomOR1 (replicate 4); -8 Spikes/s with CpomOR1 (replicate 5).

Turning to `CCC/C=C/CCCCCCCO` [(E8)-12:OH], the Spikes/s is -2 Spikes/s in the test with CpomOR1 (replicate 1); 4 Spikes/s in the test on CpomOR1 (replicate 2); 0 Spikes/s in the test on CpomOR1 (replicate 3); 0 Spikes/s in the test on CpomOR1 (replicate 4); 2 Spikes/s in the test with CpomOR1 (replicate 5).

As for `C/C=C\C=C\CCCCCCCO` [(E8,Z10)-12:OH], the Spikes/s is -2 Spikes/s in the test on CpomOR1 (replicate 1); -2 Spikes/s in the test with CpomOR1 (replicate 2); 0 Spikes/s in the test with CpomOR1 (replicate 3); -2 Spikes/s with CpomOR1 (replicate 4); -2 Spikes/s in the test on CpomOR1 (replicate 5).

`CC/C=C/CCCCCCCCO` [(E9)-12:OH]: the Spikes/s is -4 Spikes/s with CpomOR1 (replicate 1); 0 Spikes/s with CpomOR1 (replicate 2); 2 Spikes/s in the test on CpomOR1 (replicate 3); 4 Spikes/s in the test with CpomOR1 (replicate 4); -2 Spikes/s in the test on CpomOR1 (replicate 5).

As for `C/C=C/CCCCCCCCCO` [(E10)-12:OH], the Spikes/s in the test with CpomOR1 (replicate 1) was -2 Spikes/s; in the test on CpomOR1 (replicate 2) it was -2 Spikes/s; in the test with CpomOR1 (replicate 3) it was 0 Spikes/s; with CpomOR1 (replicate 4), -4 Spikes/s; in the test on CpomOR1 (replicate 5) it was 2 Spikes/s.

In the case of `CCC/C=C/CCCCCCCOC(C)=O` [(E)-8:12Ac, (E)-8-dodecadien-1-yl acetate], the Spike/s amounted to 10 Spike/s in the test with CpomOR6a (replicate 1); 0 Spike/s in the test with CpomOR6a (replicate 2); 4 Spike/s with CpomOR6a (replicate 3); 4 Spike/s with CpomOR6a (replicate 4); 12 Spike/s with CpomOR6a (replicate 5); 26 Spike/s in the test with CpomOR6a (replicate 6). The Spike/s is given as 30 Spike/s in the test with CpomOR6a (replicate 7), 30 Spike/s in the test on CpomOR6a (replicate 8) and 10 Spike/s in the test with CpomOR6a (replicate 9).

Take `C/C=C/CCCCCCCCCOC(C)=O` [(E)-10:12Ac, (E)-10-dodecadien-1-yl acetate]: in the test on CpomOR6a, the “response compared with the solvent” value is “significantly activated”. The Spike/s with CpomOR6a (replicate 1) is on record as 26 Spike/s; with CpomOR6a (replicate 2) it was 26 Spike/s; in the test on CpomOR6a (replicate 3), 28 Spike/s; in the test on CpomOR6a (replicate 4) it was 60 Spike/s; in the test with CpomOR6a (replicate 5), 34 Spike/s; with CpomOR6a (replicate 6) it was 36 Spike/s. Also, the Spike/s worked out at 50 Spike/s in the test with CpomOR6a (replicate 7), 66 Spike/s in the test on CpomOR6a (replicate 8) and 26 Spike/s in the test with CpomOR6a (replicate 9).

Turning to `C=CC(=C)CC/C=C(\C)CCC=C(C)C` [(E)-β-farnesene], the Spikes/s was 0 Spikes/s with CpomOR1 (replicate 1); 4 Spikes/s in the test with CpomOR1 (replicate 2); 2 Spikes/s with CpomOR1 (replicate 3); 0 Spikes/s in the test with CpomOR1 (replicate 4); 2 Spikes/s in the test on CpomOR1 (replicate 5).

As to `C=C/C(C)=C/CC=C(C)C` [(E)-β-ocimene], the Spikes/s in the test on CpomOR1 (replicate 1) is 2 Spikes/s; in the test with CpomOR1 (replicate 2), 8 Spikes/s; in the test with CpomOR1 (replicate 3), 0 Spikes/s; in the test with CpomOR1 (replicate 4), 2 Spikes/s; in the test on CpomOR1 (replicate 5) it was 4 Spikes/s.

As for `C/C=C\C=C\CCCCCCCOC(C)=O` [(E,Z)-8,10:12Ac, (E,Z)-8,10-dodecadien-1yl acetate], the “response compared with the solvent” value with CpomOR6a is “significantly activated”. Besides, the Spike/s is recorded as 6 Spike/s with CpomOR6a (replicate 1); 10 Spike/s with CpomOR6a (replicate 2); 16 Spike/s with CpomOR6a (replicate 3); 6 Spike/s in the test on CpomOR6a (replicate 4); 8 Spike/s in the test with CpomOR6a (replicate 5); 24 Spike/s with CpomOR6a (replicate 6). Also, the values for the Spike/s with CpomOR6a (replicate 7), in the test on CpomOR6a (replicate 8) and in the test on CpomOR6a (replicate 9) were 16 Spike/s, 34 Spike/s and 2 Spike/s, respectively.

Regarding `C/C=C/C=C\CCCCCCCO` [(Z8,E10)-12:OH], the Spikes/s is 0 Spikes/s in the test with CpomOR1 (replicate 1); 0 Spikes/s in the test on CpomOR1 (replicate 2); 6 Spikes/s in the test on CpomOR1 (replicate 3); 8 Spikes/s with CpomOR1 (replicate 4); -4 Spikes/s in the test on CpomOR1 (replicate 5).

Consider `C/C=C\C=C/CCCCCCCO` [(Z8,Z10)-12:OH], for which the Spikes/s in the test with CpomOR1 (replicate 1) is listed as -2 Spikes/s; in the test on CpomOR1 (replicate 2) it was 0 Spikes/s; in the test on CpomOR1 (replicate 3), 0 Spikes/s; in the test with CpomOR1 (replicate 4), 4 Spikes/s; in the test on CpomOR1 (replicate 5), 12 Spikes/s.

Take `CCC/C=C\CCCCCCCOC(C)=O` [(Z)-8:12Ac, (Z)-8-dodecadien-1yl acetate]: the Spike/s in the test with CpomOR6a (replicate 1) was 0 Spike/s; with CpomOR6a (replicate 2), 0 Spike/s; in the test on CpomOR6a (replicate 3), 0 Spike/s; in the test with CpomOR6a (replicate 4), 4 Spike/s; in the test with CpomOR6a (replicate 5), -2 Spike/s; in the test with CpomOR6a (replicate 6) it was 22 Spike/s. Moreover, the figures for the Spike/s with CpomOR6a (replicate 7), with CpomOR6a (replicate 8) and in the test on CpomOR6a (replicate 9) were 32 Spike/s, 6 Spike/s and -8 Spike/s, respectively.

On to `C/C=C\CCCCCCCCCOC(C)=O` [(Z)-10:12Ac, (Z)-10-dodecadien-1-yl acetate], for which the Spike/s amounted to 0 Spike/s in the test with CpomOR6a (replicate 1); 6 Spike/s in the test on CpomOR6a (replicate 2); 2 Spike/s in the test on CpomOR6a (replicate 3); 2 Spike/s in the test with CpomOR6a (replicate 4); 6 Spike/s in the test on CpomOR6a (replicate 5); 12 Spike/s in the test on CpomOR6a (replicate 6). Further, the Spike/s in the test with CpomOR6a (replicate 7) was 14 Spike/s; in the test with CpomOR6a (replicate 8), 4 Spike/s; with CpomOR6a (replicate 9), 4 Spike/s.

Consider `C/C=C/C=C\CCCCCCCOC(C)=O` [(Z,E)-8,10:12Ac, (Z,E)-8,10-dodecadien-1yl acetate], for which the Spike/s in the test with CpomOR6a (replicate 1) is 10 Spike/s; with CpomOR6a (replicate 2), 2 Spike/s; in the test on CpomOR6a (replicate 3) it was -4 Spike/s; with CpomOR6a (replicate 4), 8 Spike/s; in the test on CpomOR6a (replicate 5) it was 0 Spike/s; with CpomOR6a (replicate 6) it was 18 Spike/s. Further, the Spike/s turned out to be 26 Spike/s in the test on CpomOR6a (replicate 7), 40 Spike/s in the test on CpomOR6a (replicate 8) and 10 Spike/s in the test on CpomOR6a (replicate 9).

As to `C/C=C\C=C/CCCCCCCOC(C)=O` [(Z,Z)-8,10:12Ac, (Z,Z)-8,10-dodecadien-1yl acetate], the “response compared with the solvent” value in the test with CpomOR6a was “significantly activated”. Besides, the Spike/s in the test with CpomOR6a (replicate 1) turned out to be 14 Spike/s; in the test on CpomOR6a (replicate 2), 12 Spike/s; in the test on CpomOR6a (replicate 3) it was 10 Spike/s; in the test on CpomOR6a (replicate 4) it was 16 Spike/s; in the test on CpomOR6a (replicate 5), 20 Spike/s; in the test with CpomOR6a (replicate 6) it was 20 Spike/s. The Spike/s with CpomOR6a (replicate 7) turned out to be 10 Spike/s; in the test with CpomOR6a (replicate 8), 32 Spike/s; in the test on CpomOR6a (replicate 9), 12 Spike/s.

For the molecule Dodecadien-1-yl acetate [12Ac], the Spike/s with CpomOR6a (replicate 1) was 4 Spike/s; in the test with CpomOR6a (replicate 2) it was 4 Spike/s; with CpomOR6a (replicate 3), -2 Spike/s; in the test on CpomOR6a (replicate 4), 6 Spike/s; in the test with CpomOR6a (replicate 5), 10 Spike/s; in the test with CpomOR6a (replicate 6), 6 Spike/s. Moreover, the values for the Spike/s in the test on CpomOR6a (replicate 7), in the test on CpomOR6a (replicate 8) and in the test on CpomOR6a (replicate 9) were 0 Spike/s, 12 Spike/s and -12 Spike/s, respectively.

Source of the values: PMC5259778, “Candidate pheromone receptors of codling moth Cydia pomonella respond to pheromones and kairomones” (Scientific Reports, 2017).
